Measurements: patent US7863446B2, “Heterocycles” (Orchid Research Laboratories Limited, priority 2006, dated 2011)

Assays:
TNF-α = assay: In vitro measurement of TNF-α in human PBMC (LPS stimulated); type: cell-based
Procedure: In Vitro Measurement of Tumor Necrosis Factor Alpha (TNF-α)
This assay determines the effect of test compounds on the production of TNF α in human Peripheral Blood Mononuclear Cells (PBMC). Compounds were tested for their ability to inhibit the activity of TNF α in human PBMC. PBMC were isolated from blood (of healthy volunteers) using BD Vacutainer CPT™ (Cell preparation tube, BD Bio Science) and suspended in RPMI medium (Physiol. Res. 52: 593-598, 2003). The test compounds were pre-incubated with PBMC (0.5 million/incubation well) for 15 minutes at 37° C. and then stimulated with Lipopolysaccharide (Escherichia coli: B4; 1 μg/ml) for 18 hours at 37° C. in 5% CO2. The levels of TNF-α in the cell culture medium were estimated using enzyme-linked immunosorbent assay performed in a 96 well format as per the procedure of the manufacturer (Cayman Chemical, Ann Arbor, USA).

COX-2 = biological target: T1, COX-2 (Homo sapiens, UniProt P35354); assay: Human whole blood assay (PGE-2 inhibition, COX-2); type: cell-based; details: LPS stimulated human whole blood, NA = No activity, read-out: % PGE-2 Inhibition in hWBA
T1 construct: Fresh blood was collected in tubes containing sodium heparin by vein puncture from healthy male volunteers; endogenous in cells; host or cells: human whole blood from healthy male volunteers, stimulated with LPS
T1 sequence (P35354 18-604): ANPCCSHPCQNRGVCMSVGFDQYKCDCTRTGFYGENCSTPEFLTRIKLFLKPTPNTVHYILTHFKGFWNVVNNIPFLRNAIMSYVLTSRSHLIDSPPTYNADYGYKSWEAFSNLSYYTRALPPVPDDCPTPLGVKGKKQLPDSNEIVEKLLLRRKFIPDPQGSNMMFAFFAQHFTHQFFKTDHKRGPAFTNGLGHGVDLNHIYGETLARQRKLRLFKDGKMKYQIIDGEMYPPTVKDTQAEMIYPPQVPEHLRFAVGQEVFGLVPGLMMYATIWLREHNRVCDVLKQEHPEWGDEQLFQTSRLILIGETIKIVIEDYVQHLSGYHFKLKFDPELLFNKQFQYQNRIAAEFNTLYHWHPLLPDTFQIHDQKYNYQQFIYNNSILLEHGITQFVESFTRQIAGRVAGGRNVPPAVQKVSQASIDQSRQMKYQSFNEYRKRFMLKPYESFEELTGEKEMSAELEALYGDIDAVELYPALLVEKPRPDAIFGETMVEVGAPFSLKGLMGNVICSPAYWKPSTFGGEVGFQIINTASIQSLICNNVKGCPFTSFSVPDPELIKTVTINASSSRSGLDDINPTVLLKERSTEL
Procedure: In Vitro Evaluation of Cyclooxygenase-2 (Cox-2) Inhibition Activity
The COX-2 inhibition activities of the compounds illustrated in the examples were determined by the following method.
Human whole blood provides a protein and cell rich milieu appropriate for the study of the biochemical efficacy of anti-inflammatory compounds such as selective COX-2 inhibitors. […] This correlates with the observation that COX-2 inhibitors have no effect on prostaglandin E2 (PGE2) production in normal blood. These inhibitors were active only after incubation of human blood with lipopolysaccharide (LPS), which induces COX-2 production in the blood.
Fresh blood was collected in tubes containing sodium heparin by vein puncture from healthy male volunteers. The subjects should have no apparent inflammatory conditions and should have not taken NSAIDs for at least 7 days prior to blood collection. Blood was preincubated with aspirin in vitro (12 μg/ml, at time zero) to inactivate COX-1 for 6 hours. Then test compounds (at various concentrations) or vehicle were added to blood, the blood was stimulated with LPS B:4 (10 μg/ml) and incubated for another 18 hours at 37° C. water bath. After which the blood was centrifuged, plasma was separated and stored at −80° C. (J. Pharmacol. Exp. Ther, 271, 1705, 1994; Proc. Natl. Acad. Sci. USA, 96, 7563, 1999). The plasma was assayed for PGE2 using Cayman ELISA kit as per the procedure outlined by the manufacturer (Cayman Chemicals, Ann Arbor, USA).

HCT-116 = assay: Anti-cancer screen (MTT), HCT-116; type: cell-based; details: Homo sapiens, HCT-116, 48 hours
Procedure: (§1) Experimental drugs are screened for anti-cancer activity in three cell lines for their GI50, TG1 and LC50 values (using 5 concentrations for each compound). The cell lines are maintained in DMEM containing 10% fetal bovine serum. 96 well microtiter plates are inoculated with cells in […] for 24 hours at 37° C., 5% CO2, 95% air and 100% relative humidity. 5000 HCT116 cells/well, 5000 NCIH460 cells/well, 10000 U251 cells/well and 5000 MDAMB231 cells/well are plated. A separate plate with these cell lines is also inoculated to determine cell viability before the addition of the compounds (T0).
(§2) Addition of Experimental Drugs
(§3) Following 24-hour incubation, experimental drugs are added to the 96 well plates. Each plate contains one of the above cell lines and the following in triplicate: 5 different concentrations (0.01, 0.1, 1, 10 and 100 μM) of 4 different compounds, appropriate dilutions of a cytotoxic standard and control (untreated) wells. Compounds are dissolved in dimethylsulfoxide (DMSO) to make 20 mM stock solutions, on the day of drug addition and frozen at −20° C. Serial dilutions of these 20 mM stock solutions are made in complete growth medium such that 100 μL of these drug solutions in medium, of final concentrations equaling 0.01, 0.1, 1, 10 and 100 μM can be added to the cells in triplicate. Standard drugs whose anti-cancer activity has been well documented and which are regularly used are doxorubicin and SAHA.
(§4) Cells are incubated with compounds for 48 hours followed by the addition of 10 μL 3-(4,5-Dimethyl-2-thiazolyl)-2,5-diphenyl-2H-tetrazolium (MTT) solution per well and a subsequent incubation at 37° C., 5% CO2, 95% air and 100% relative humidity, protected from light. After 4 hours, well contents are aspirated carefully followed by addition of 150 μL DMSO per well. Plates are agitated to ensure solution of the formazan crystals in DMSO and absorbance read at 570 nm.
(§5) Calculation of GI50, TGI and LC50
(§6) Percent growth is calculated for each compound's concentration relative to the control and zero measurement wells (T0; viability right before compound addition).
(§7) If a test well's O.D. value is greater than the T0 measurement for that cell line % Growth=(test−zero)/(control−zero)×100
(§8) If a test well's O.D. value is lower than the T0 measurement for that cell line, then % Growth=(test−zero)/zero×100 Plotting % growth versus experimental drug concentration, GI50 is the concentration required to decrease % growth by 50%; TGI is the concentration required to decrease % growth by 100% and LC50 is the concentration required to decrease % growth by 150%.

NCI-H460 = assay: Anti-cancer screen (MTT), NCI-H460; type: cell-based; details: Homo sapiens, NCI-H460, 48 hours
Procedure: as §1, §2, §3, §4, §5, §6, §7, §8

[1] = biological target: purified recombinant COX-1 (Homo sapiens, UniProt P23219); assay: COX-1 enzyme based assay; type: biochemical; details: NA = No activity, read-out: % Inhibition in rEnzyme Assay COX-1
Procedure: (§9) COX-1 and COX-2 Enzyme Based Assay
(§10) COX-1 and COX-2 enzyme based assays were carried out to check the inhibitory potential of the test compounds on the production of prostaglandin by purified recombinant COX-1/COX-2 enzyme (Proc. Nat. Acad. Sci. USA, 88, 2692-2696, 1991; J. Clin. Immunoassay 15, 116-120, 1992) In this assay, the potential of the test compound to inhibit the production of prostaglandin either by COX-1 or COX-2 from arachidonic acid (substrate) was measured. This was an enzyme based in-vitro assay to evaluate selective COX inhibition with good reproducibility.
(§11) Arachidonic acid was converted to PGH2 (Intermediate product) by COX1/COX-2 in the presence or absence of the test compound. The reaction was carried out at 37° C. and after 2 minutes it was stopped by adding 1M HCl. Intermediate product PGH2 was converted to a stable prostanoid product PGF2αby SnCl2 reduction. The amount of PGF2α, produced in the reaction was inversely proportional to the COX inhibitory potential of the test compound. The prostanoid product was quantified via enzyme immunoassay (EIA) using a broadly specific antibody that binds to all the major forms of prostaglandin, using Cayman ELISA kit as per the procedure outlined by the manufacturer (Cayman Chemicals, Ann Arbor, USA).

[2] = biological target: T2, purified recombinant COX-2 (Homo sapiens, UniProt P35354); assay: COX-2 enzyme based assay; type: biochemical; details: 10 μM; NA = No activity; read-out: % Inhibition in rEnzyme Assay COX-2
T2 sequence (P35354 18-604): T1 sequence (P35354 18-604)
Procedure: as §9, §10, §11

Chain of purified recombinant COX-1 (P23219 24-599): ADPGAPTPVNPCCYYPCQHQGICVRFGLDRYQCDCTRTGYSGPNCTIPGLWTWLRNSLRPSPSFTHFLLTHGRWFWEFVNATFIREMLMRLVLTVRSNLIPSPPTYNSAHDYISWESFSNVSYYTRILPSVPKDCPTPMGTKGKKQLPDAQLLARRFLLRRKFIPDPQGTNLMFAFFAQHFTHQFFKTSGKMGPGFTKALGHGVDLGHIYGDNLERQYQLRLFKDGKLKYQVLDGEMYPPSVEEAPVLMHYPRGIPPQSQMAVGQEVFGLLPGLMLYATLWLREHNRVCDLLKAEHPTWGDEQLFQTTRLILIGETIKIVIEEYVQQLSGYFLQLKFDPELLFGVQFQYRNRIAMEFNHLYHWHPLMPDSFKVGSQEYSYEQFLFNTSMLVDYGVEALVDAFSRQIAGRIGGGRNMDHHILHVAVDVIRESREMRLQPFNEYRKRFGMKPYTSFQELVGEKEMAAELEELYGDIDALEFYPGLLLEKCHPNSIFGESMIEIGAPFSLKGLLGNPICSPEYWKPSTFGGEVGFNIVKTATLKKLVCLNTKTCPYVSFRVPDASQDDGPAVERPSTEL

Row | SMILES | melting point [°C] | GI50 (HCT-116) [µM] | GI50 (NCI-H460) [µM] | also measured
1 | CS(=O)(=O)c1ccc(-c2nc(C(F)(F)F)nc(Cl)c2-c2ccc(S(=O)(=O)Cl)cc2)cc1 [Example 3, 4-{4-Chloro-6-[4-(methylsulfonyl)phenyl]-2-(trifluoromethyl)pyrimidin-5-yl}benzenesulfonyl chloride] | 207 to 210 |  |  | 
2 | CC(=O)NS(=O)(=O)c1ccc(-c2c(Cl)nc(C(F)(F)F)nc2-c2ccc(S(C)(=O)=O)cc2)cc1 [Example 17, N-[(4-{4-Chloro-6-[4-(methylsulfonyl)phenyl]-2-(trifluoromethyl)pyrimidin-5-yl}phenyl)sulfonyl]acetamide] | 230 to 235 |  |  | 
3 | Cc1ccc(S(=O)(=O)Oc2nc(C(F)(F)F)nc(-c3ccc(S(C)(=O)=O)cc3)c2-c2ccccc2)cc1 [Example 22, 6-[4-(Methylsulfonyl)phenyl]-5-phenyl-2-(trifluoromethyl)pyrimidin-4-yl-4-methylbenzenesulfonate] |  |  |  | inhibition at 0.25 µM (COX-2; 0.25 μM): 15.6%; inhibition at 1 µM (COX-2; 1 μM): 20.4%; inhibition at 10 µM (COX-2; 10 μM): 36.4%
4 | NS(=O)(=O)c1ccc(-c2nc(C(F)(F)F)nc(N3CCN(C(=O)c4ccc([N+](=O)[O-])o4)CC3)c2-c2ccc(F)cc2)cc1 [Example 40, 4-{5-[4-Fluorophenyl]-4-[4-(5-nitro-2-furoyl)piperazin-1-yl]-2-(trifluoromethyl)pyrimidin-6-yl}benzenesulfonamide] |  | 3.5 | 3.8 | 
5 | FC(F)(F)c1nc(-c2ccccc2)c(-c2ccccc2)c(N2CCN(c3ccccn3)CC2)n1 [Example 48, 4,5-Diphenyl-6-(4-pyridin-2-yl-piperazin-1-yl)-2-(trifluoromethyl)pyrimidine] | 165 to 167 |  |  | 
6 | NS(=O)(=O)c1cccc(-c2c(-c3ccccc3)nc(C(F)(F)F)nc2N2CCNCC2)c1 [Example 51, 3-[4-Phenyl-6-piperazin-1-yl-2-(trifluoromethyl)pyrimidin-5-yl]benzenesulfonamide] |  | 30 | 4 | inhibition at 1 µM ([1]; 1 μM): 8.27%; inhibition at 10 µM ([1]; 10 μM): 7.1%; inhibition at 10 µM [2]: 12.3%
7 | NS(=O)(=O)c1cccc(-c2c(-c3ccc(F)cc3)nc(C(F)(F)F)nc2N2CCN(c3cccc(C(F)(F)F)c3)CC2)c1 [Example 73, 5-(3-Aminosulfonylphenyl)-4-(4-fluorophenyl)-2-(trifluoromethyl)-6-{4-[3-(trifluoromethyl)phenyl]piperazin-1-yl}pyrimidine] |  | 9.2 | 9 | 

Continued, in another order:

Row | melting point [°C] | GI50 (HCT-116) [µM] | GI50 (NCI-H460) [µM] | SMILES | also measured
8 | 240 to 242 |  |  | O=C(NNc1nc(C(F)(F)F)nc(-c2ccncc2)c1-c1ccc(F)cc1)C(F)(F)F [Example 14, 2,2,2-Trifluoro-N′-[5-(4-fluorophenyl)-6-pyridin-4-yl-2-(trifluoromethyl)pyrimidin-4-yl]acetohydrazide] | inhibition at 1 µM (TNF-α; 1 μM, NA = No activity, read-out: TNF-α Inhibition (%) at Conc. (1 μM)): 25.5%; inhibition at 10 µM (TNF-α; 10 μM, read-out: TNF-α Inhibition (%) at Conc. (10 μM)): 67.5%
9 |  | 7 | 4 | NS(=O)(=O)c1ccc(-c2c(-c3ccc(F)cc3)nc(C(F)(F)F)nc2N2CCN(C(=O)c3ccc([N+](=O)[O-])o3)CC2)cc1 [Example 41, 4-{6-[4-Fluorophenyl]-4-[4-(5-nitro-2-furoyl)piperazin-1-yl]-2-(trifluoromethyl)pyrimidin-5-yl}benzenesulfonamide] | 
10 |  | 26 | 4.5 | O=C(c1ccc([N+](=O)[O-])o1)N1CCN(c2nc(C(F)(F)F)nc(-c3ccncc3)c2-c2ccc(F)cc2)CC1 [Example 44, 5-[4-Fluorophenyl]-4-[4-(5-nitro-2-furoyl)piperazin-1-yl]-6-pyridin-4-yl-2-(trifluoromethyl)pyrimidine] | 
11 |  | 20 | 0.1 | CSc1nn(-c2nc(C(F)(F)F)nc(-c3ccncc3)c2-c2ccc(F)cc2)c(N)c1C(=O)Nc1ccc(C)c(C)c1 [Example 143, 5-Amino-N-(4,5-dimethylphenyl)-1-[5-(4-fluorophenyl)-6-pyridin-4-yl-2-(trifluoromethyl)pyrimidin-4-yl]-3-(methylthio)-1H-pyrazole-4-carboxamide] | 
